Data: the NIST ThermoML archive (doi:10.1021/je8008182)
Values joined by “and” are separate entries in the source; they are usually repeats but may differ in a detail not shown here. Identical values can stand only once.

Key:
[1] = xn = mol fraction of the nth substance listed; details: 101 kPa, Liquid, x2 = 0; for viscosity: Capillary tube (Ostwald / Ubbelohde) method; for mass density: Pycnometric method
[2] = Liquid; for mass density: Pycnometric method; for viscosity: Capillary tube (Ostwald / Ubbelohde) method
[3] = wn = mass fraction of the nth substance listed; details: 101 kPa, Liquid, w1 = 0.2; for mass density: Pycnometric method; for viscosity: Capillary tube (Ostwald / Ubbelohde) method

O [water] + Cc1ccncc1
[1]
Details	mass density [kg/m3]	viscosity [mPa·s]
298.15 K	–	0.8903
303.15 K	–	0.7973
308.15 K	–	0.719
313.15 K	–	0.6526
318.15 K	–	0.5972
323.15 K	988	0.5468
328.15 K	985.7	0.5042
333.15 K	983.2	0.4669
338.15 K	980.6	0.4341

Cc1ccncc1 [4-methylpyridine]
[2]
Details	mass density, 101 kPa	mass density, 101.33 kPa [kg/m3]	viscosity, 101 kPa [mPa·s]	viscosity, 101.33 kPa [mPa·s]
283.15 K	958.2 kg/m3	958.2	–	–
293.15 K	955.1 kg/m3	955.1	–	–
298.15 K	955.4 kg/m3 and 951.1 kg/m3	951.1	–	0.8723
303.15 K	951.1 kg/m3	–	0.8175	–
308.15 K	941.3 kg/m3	–	0.7774	–
313.15 K	936.6 kg/m3	–	0.7368	–
318.15 K	932.1 kg/m3	–	0.6855	–
323.15 K	927.7 kg/m3	–	0.6505	–
328.15 K	923.2 kg/m3	–	0.5905	–
333.15 K	918.5 kg/m3	–	0.5329	–
338.15 K	914 kg/m3	–	0.4815	–

O [water]
[2], 101 kPa
Details	mass density [kg/m3]	viscosity [mPa·s]
298.15 K	–	0.8903
303.15 K	–	0.7973
308.15 K	–	0.719
313.15 K	–	0.6526
318.15 K	–	0.5972
323.15 K	988	0.5468
328.15 K	985.7	0.5042
333.15 K	983.2	0.4669
338.15 K	980.6	0.4341

O=S(=O)(O)O [sulfuric acid] + O
[3]
Details	mass density [kg/m3]	viscosity [mPa·s]
283.15 K	1145	–
293.15 K	1139.6	1.543
298.15 K	1136.4	–
303.15 K	1133.7	1.21
313.15 K	1127.8	0.987
323.15 K	1121.9	0.824
333.15 K	1115.7	0.716
343.15 K	1108.9	0.638
